Our source for the IC50 values is patent publication US8389527B2, “Substituted imidazopyridazines useful as kinase inhibitors” (Bristol-Myers Squibb Company, priority 2008, dated 2013).

Structures are written as SMILES.

For assay [1], the target named is T1, recombinant CK2A1 (Homo sapiens, UniProt P68400).
T1 construct: purchased Invitrogen
Nature of the assay: CK2 kinase assay (CK2A1), [γ-33P]ATP filter-binding. The class given is biochemical. The method, then: (§1) The effectiveness of compounds of the present invention as inhibitors of protein kinases can be readily tested by assays known to those skilled in the art. For example, in vitro protein kinase assays may be conducted with a relevant purified protein kinase and an appropriate synthetic substrate to determine the inhibitory activities of the compounds. […] Reaction mixtures were incubated at 30° C. for 1 h, and reaction products were captured by binding to phosphocellulose (P81) filter plates. Incorporation of radioactive phosphate into the peptide substrate was determined by liquid scintillation counting. The potency of compounds in inhibiting CK2 is expressed as IC50, defined as the concentrations of compounds required to inhibit the enzymatic activity by 50%.

Assay [2] deals with T2, recombinant CK2A2 (Homo sapiens, UniProt P19784).
T2 construct: purchased Upstate Biotechnology
T2 sequence (P19784 whole entry): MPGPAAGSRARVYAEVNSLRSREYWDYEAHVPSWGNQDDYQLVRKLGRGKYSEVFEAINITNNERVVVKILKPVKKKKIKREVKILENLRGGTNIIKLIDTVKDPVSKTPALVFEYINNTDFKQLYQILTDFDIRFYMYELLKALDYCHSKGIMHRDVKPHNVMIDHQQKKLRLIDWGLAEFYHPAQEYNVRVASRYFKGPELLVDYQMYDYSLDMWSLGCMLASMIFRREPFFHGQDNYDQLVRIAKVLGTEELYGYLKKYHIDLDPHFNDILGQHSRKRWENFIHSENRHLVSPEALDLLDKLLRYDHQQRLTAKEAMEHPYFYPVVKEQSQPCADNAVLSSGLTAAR
Nature of the assay: CK2 kinase assay (CK2A2), [γ-33P]ATP filter-binding. The class given is biochemical. On the procedure: as §1

Assay [3] concerns HCT116. Nature of the assay: Cell proliferation inhibition assay (MTT, CellTiter96). Format: cell-based. The following applies: Homo sapiens, HCT-116; HCT116 cells, 72 h with compound, MTT readout. The method, then: B. Cell Proliferation Inhibition Assay
Compounds were evaluated for their ability to inhibit cell proliferation, using an assay that measures mitochondrial metabolic activity, that is directly correlated with cell numbers. Cells were plated at 2000 cells/well in 96-well plates and were cultured for 24 h in RPMI-1640 supplemented with 2% fetal bovine serum, before test compounds were added. Compounds were diluted in culture medium such that the final concentration of dimethyl sulfoxide never exceeded 1%. Following the addition of compounds, the cells were cultured for an additional 72 h before cell viability was determined by measuring the conversion of 3-(4,5-dimethylthiazol-2-yl)-2,5-diphenyltetrazolium bromide (MTT) dye using the CellTiter96 kit (Promega).

Setting [4] is: recombinant CK2A1 10 nM, ATP 25 μM, 10 μM peptide substrate, 30° C. 1 h.
The mark [5] stands for this setting: recombinant CK2A2 5 nM, ATP 5 μM, 10 μM peptide substrate, 30° C. 1 h.
Where [6] appears, read: comparison examples of U.S. 2007/038314 (Table 2).

T1 sequence (P68400 whole entry): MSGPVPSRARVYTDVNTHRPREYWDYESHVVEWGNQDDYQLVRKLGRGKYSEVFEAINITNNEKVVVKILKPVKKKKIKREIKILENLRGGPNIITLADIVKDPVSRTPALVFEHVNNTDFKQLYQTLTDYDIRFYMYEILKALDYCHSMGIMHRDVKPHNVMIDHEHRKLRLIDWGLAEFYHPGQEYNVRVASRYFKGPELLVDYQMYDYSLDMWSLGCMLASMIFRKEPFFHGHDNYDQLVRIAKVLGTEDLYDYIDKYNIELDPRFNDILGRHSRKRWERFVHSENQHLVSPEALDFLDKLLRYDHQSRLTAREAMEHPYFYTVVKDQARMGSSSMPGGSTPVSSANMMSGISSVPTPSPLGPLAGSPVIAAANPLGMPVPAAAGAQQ

Regarding `CN[C@H](C)C(=O)N[C@H]1CC[C@H](Nc2cc(NC3CC3)c3ncc(C(=O)Nc4ccnc(Cl)c4)n3n2)CC1` (relative stereo) [Example 154, N-(2-chloro-4-pyridinyl)-8-(cyclopropylamino)-6-((trans-4-((N-methyl-D-alanyl)amino)cyclohexyl)amino)imidazo[1,2-b] pyridazine-3-carboxamide], the figures for the IC50 in assay [1] (setting [4]), in assay [2] (setting [5]) and in assay [3] were 38.5 nM, 0.2 nM and 210 nM, respectively.
For `N[C@H](Cc1cscn1)C(=O)N[C@H]1CC[C@H](Nc2cc(NC3CC3)c3ncc(C(=O)Nc4ccnc(Cl)c4)n3n2)CC1` (relative stereo) [Example 179, N-(2-chloro-4-pyridinyl)-8-(cyclopropylamino)-6-((trans-4-((3-(1,3-thiazol-4-yl)-D-alanyl)amino)cyclohexyl)amino)imidazo[1,2-b]pyridazine-3-carboxamide] the same measures were 13.8 nM, 0.7 nM and 920 nM.
Take `N[C@H]1CC[C@H](Nc2cc(NC3CCC3)c3ncc(C(=O)Nc4ccncc4)n3n2)CC1` [Example 3, 6-((trans-4-aminocyclohexyl)amino)-8-(cyclobutylamino)-N-4-pyridinylimidazo[1,2-b]pyridazine-3-carboxamide]: the IC50 in assay [1] (setting [4]) worked out at 35 nM; in assay [2] (setting [5]), 15 nM; in assay [3], 80 nM.
For `C[C@@H](N)C(=O)N[C@H]1CC[C@H](Nc2cc(Nc3ccccn3)c3ncc(C(=O)Nc4ccncc4F)n3n2)CC1` [Example 6, 6-((trans-4-(D-alanylamino)cyclohexyl)amino)-N-(3-fluoro-4-pyridinyl)-8-(2-pyridinylamino)imidazo[1,2-b]pyridazine-3-carboxamide] the same measures were 11 nM, 3 nM and 90 nM.
Turning to `O=C(Nc1ccnc(F)c1)c1cnc2c(NC3CC3)cc(N[C@H]3CC[C@H](O)CC3)nn12` [Example 13, 8-(cyclopropylamino)-N-(2-fluoro-4-pyridinyl)-6-((trans-4-hydroxycyclohexyl)amino)imidazo[1,2-b]pyridazine-3-carboxamide], the results for the IC50 in assay [1] (setting [4]), in assay [2] (setting [5]) and in assay [3] were 42 nM, 17 nM and 170 nM, respectively.
For `N[C@H]1CC[C@H](Nc2cc(NC3CC3)c3ncc(C(=O)Nc4ccnc(F)c4)n3n2)CC1` [Example 25C, 6-((trans)-4-aminocyclohexylamino)-8-(cyclopropylamino)-N-(2-fluoropyridin-4-yl)imidazo[1,2-b]pyridazine-3-carboxamide] the same measures were 86 nM, 11 nM and 170 nM.
For `O=C(Nc1ccnc(F)c1)c1cnc2c(NC3CC3)cc(N[C@H]3CC[C@H](N4CCOCC4)CC3)nn12` [Example 27, 8-(cyclopropylamino)-N-(2-fluoropyridin-4-yl)-6-((trans)-4-morpholinocyclohexylamino)imidazo[1,2-b]pyridazine-3-carboxamide], the IC50 in assay [1] (setting [4]) amounted to 247 nM; in assay [2] (setting [5]), 72 nM; in assay [3], 430 nM.
As to `N#CCC(=O)N[C@H]1CC[C@H](Nc2cc(NC3CC3)c3ncc(C(=O)Nc4ccnc(Cl)c4)n3n2)CC1` [Example 34, N-(2-chloropyridin-4-yl)-6-((trans)-4-(2-cyanoacetamido)cyclohexylamino)-8-(cyclopropylamino)imidazo[1,2-b]pyridazine-3-carboxamide], the values for the IC50 in assay [1] (setting [4]), in assay [2] (setting [5]) and in assay [3] were 11.5 nM, 0.8 nM and 170 nM, respectively.
The matching figures for `Nc1cc(N[C@H]2CC[C@H](N)CC2)nn2c(C(=O)Nc3ccncc3)cnc12` [Example 39, 8-amino-6-(4-aminocyclohexylamino)-N-(pyridin-4-yl)imidazo[1,2-b]pyridazine-3-carboxamide]: 102 nM, 43 nM and 9950 nM.
For the compound `O=C(Nc1ccncc1F)c1cnc2c(Nc3cccc(N[C@H]4CC[C@H](O)CC4)n3)cc(N[C@H]3CC[C@H](O)CC3)nn12` [Example 45, N-(3-fluoro-4-pyridinyl)-6-((trans-4-hydroxycyclohexyl)amino)-8-((6-((trans-4-hydroxycyclohexyl)amino)-2-pyridinyl)amino)imidazo[1,2-b]pyridazine-3-carboxamide], the half-maximal inhibitory concentration (IC50) in assay [1] (setting [4]) came out at 34 nM; in assay [2] (setting [5]), 8 nM; in assay [3] it was 140 nM.
On to `CC(=O)Nc1cccc(NC(=O)c2cnc3c(NC4CC4)cc(N[C@H]4CC[C@H](N)CC4)nn23)c1` [Example 83, N-(3-acetamidophenyl)-6-((trans)-4-aminocyclohexylamino)-8-(cyclopropylamino)imidazo[1,2-b]pyridazine-3-carboxamide], for which the values for the IC50 in assay [1] (setting [4]), in assay [2] (setting [5]) and in assay [3] were 12300 nM, 4390 nM and > 1000 nM, respectively.
Turning to `O=C(Nc1ccncc1F)c1cnc2c(NC3CC3)cc(N[C@H]3CC[C@H](NC(=O)[C@H]4CCCN4)CC3)nn12` [Example 104, 8-(cyclopropylamino)-N-(3-fluoro-4-pyridinyl)-6-((trans-4-(D-prolylamino)cyclohexyl)amino)imidazo[1,2-b]pyridazine-3-carboxamide], the half-maximal inhibitory concentration (IC50) worked out at 38 nM in assay [1] (setting [4]), 10 nM in assay [2] (setting [5]) and 200 nM in assay [3].
For `NCC(=O)N[C@H]1CC[C@H](Nc2cc(NC3CC3)c3ncc(C(=O)Nc4ccncc4F)n3n2)CC1` [Example 124, 8-(cyclopropylamino)-N-(3-fluoro-4-pyridinyl)-6-((trans-4-(glycylamino)cyclohexyl)amino)imidazo[1,2-b]pyridazine-3-carboxamide] the same measures were 31 nM, 8 nM and 300 nM.
The matching figures for `C[C@H](N)C(=O)N[C@H]1CC[C@H](Nc2cc(NC3CC3)c3ncc(C(=O)Nc4ccnc(F)c4)n3n2)CC1` [Example 134, 6-((trans-4-(L-alanylamino)cyclohexyl)amino)-8-(cyclopropylamino)-N-(2-fluoro-4-pyridinyl)imidazo[1,2-b]pyridazine-3-carboxamide]: 55 nM, 13 nM and 170 nM.
For `N#CCC(=O)N[C@H]1CC[C@H](Nc2cc(NC3CC3)c3ncc(C(=O)Nc4ccnc(F)c4)n3n2)CC1` [Example 138, 6-((trans-4-((cyanoacetyl)amino)cyclohexyl)amino)-8-(cyclopropylamino)-N-(2-fluoro-4-pyridinyl)imidazo [1,2-b]pyridazine-3-carboxamide] the same measures were 21 nM, 9 nM and 610 nM.
With `NCCCC(=O)N[C@H]1CC[C@H](Nc2cc(NC3CC3)c3ncc(C(=O)Nc4ccnc(F)c4)n3n2)CC1` [Example 143, 6-((trans-4-((4-aminobutanoyl)amino)cyclohexyl)amino)-8-(cyclopropylamino)-N-(2-fluoro-4-pyridinyl)imidazo [1,2-b]pyridazine-3-carboxamide], the IC50 is 199 nM in assay [1] (setting [4]), 70 nM in assay [2] (setting [5]) and 340 nM in assay [3].
The matching figures for `O=C(Nc1ccnc(F)c1)c1cnc2c(NC3CC3)cc(N[C@H]3CC[C@H](NC(=O)C4CCCNC4)CC3)nn12` (stereo partly drawn) [Example 144, 8-(cyclopropylamino)-N-(2-fluoro-4-pyridinyl)-6-((trans-4-((3-piperidinylcarbonyl)amino)cyclohexyl)amino) imidazo[1,2-b]pyridazine-3-carboxamide]: 183 nM, 70 nM and > 2500 nM.
For `C[C@H](CN)C(=O)N[C@H]1CC[C@H](Nc2cc(NC3CC3)c3ncc(C(=O)Nc4ccnc(Cl)c4)n3n2)CC1` [Example 146, 6-((trans-4-(((2R)-3-amino-2-methylpropanoyl)amino)cyclohexyl)amino) N-(2-chloro-4-pyridinyl)-8-(cyclopropylamino)imidazo [1,2-b]pyridazine-3-carboxamide] the same measures were 25.9 nM, 1.5 nM and 590 nM.
Regarding `COC(=O)CN[C@H]1CC[C@H](Nc2cc(NC3CC3)c3ncc(C(=O)Nc4ccncc4F)n3n2)CC1` [Example 523, methyl N-(trans-4-((8-(cyclopropylamino)-3-((3-fluoro-4-pyridinyl)carbamoyl)imidazo[1,2-b]pyridazin-6-yl)amino)cyclohexyl)glycinate], the figures for the IC50 in assay [1] (setting [4]) and in assay [3] were 57 nM and 388 nM, respectively.
For the compound `CCOc1ccc(Nc2cc(N[C@H]3CC[C@H](N)CC3)nn3ccnc23)cc1` [I(1), reference compound], the values for the IC50 in assay [1] (setting [6]) and in assay [2] (setting [6]) were > 50000 nM and 10300 nM, respectively.
The matching figures for `N[C@H]1CC[C@H](Nc2cc(Nc3ccccc3)c3nccn3n2)CC1` [I(7), reference compound]: > 50000 nM and > 50000 nM.
For `Cc1ccc(Nc2cc(N[C@H]3CC[C@H](N)CC3)nn3ccnc23)nc1` [II(16), reference compound], in assay [1] (setting [6]), the IC50 is > 50000 nM.

By IC50 is commonly meant the concentration at which inhibition is half-maximal.
